Results taken from patent US9346815B2, “5-chloro-2-difluoromethoxyphenyl pyrazolopyrimidine compounds, compositions and methods of use thereof” (Genentech, Inc., priority 2014, dated 2016).

What was measured:
[1] = test system: JAK1-dependent STAT6 phosphorylation downstream of IL-13 stimulation in BEAS-2B human bronchial epithelial cells; experiment: JAK1 pathway assay in BEAS-2B cells (IL-13-pSTAT6, MSD); assay type: cell-based; conditions: read-out: IL13-pSTAT6 EC50 (uM)_BEAS-2B
Procedure, shortened: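 TF-1 cells starved of GM-CSF overnight, assayed serum-free; BEAS-2B cells in complete growth medium. Lysate pSTAT6 measured by MSD; EC50 derived.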

[2] = target: isolated recombinant JAK2 kinase domain (Homo sapiens (Human), UniProt O60674); experiment: JAK2 enzyme assay (Caliper LabChip, peptide phosphorylation); assay type: biochemical; conditions: 25 μM ATP
Chain of isolated recombinant JAK2 kinase domain (O60674 849-1124): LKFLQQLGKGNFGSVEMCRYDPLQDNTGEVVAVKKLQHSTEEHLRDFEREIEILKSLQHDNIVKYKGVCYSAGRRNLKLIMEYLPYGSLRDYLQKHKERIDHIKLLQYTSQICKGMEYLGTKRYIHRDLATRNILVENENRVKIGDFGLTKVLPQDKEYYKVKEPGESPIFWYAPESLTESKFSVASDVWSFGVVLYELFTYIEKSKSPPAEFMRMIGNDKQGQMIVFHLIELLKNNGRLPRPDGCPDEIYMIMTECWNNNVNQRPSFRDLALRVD

[3] = target: isolated recombinant JAK1 kinase domain (Homo sapiens (Human), UniProt P23458); experiment: JAK1 enzyme assay (Caliper LabChip, peptide phosphorylation); assay type: biochemical; conditions: isolated recombinant JAK1 kinase domain, 25 μM ATP
Chain of isolated recombinant JAK1 kinase domain (P23458 875-1153): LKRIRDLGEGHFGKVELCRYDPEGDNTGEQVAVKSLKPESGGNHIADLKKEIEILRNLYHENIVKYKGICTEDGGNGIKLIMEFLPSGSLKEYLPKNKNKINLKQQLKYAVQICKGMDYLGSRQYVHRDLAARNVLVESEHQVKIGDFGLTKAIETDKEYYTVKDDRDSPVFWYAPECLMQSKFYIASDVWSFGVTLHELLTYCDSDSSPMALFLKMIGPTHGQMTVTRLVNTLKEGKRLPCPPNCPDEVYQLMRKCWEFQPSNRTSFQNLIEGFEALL

SMILES | Ki [2] [pM] | Ki [3] [pM] | EC50 [1] [µM]
O=C(Nc1cn(CC(=O)N2CCN(C3CCOC3)CC2)nc1-c1cc(Cl)ccc1OC(F)F)c1cnn2cccnc12 (stereo not drawn) [Example 437, N-(3-(5-chloro-2-(difluoromethoxy)phenyl)-1-(2-oxo-2-(4-(tetrahydrofuran-3-yl)piperazin-1-yl)ethyl)-1H-pyrazol-4-yl)pyrazolo[1,5-a]pyrimidine-3-carboxamide] | 880 | 380 | 0.0126
O=C(Nc1cn(CC(=O)N2CC3CCCNC3C2)nc1-c1cc(Cl)ccc1OC(F)F)c1cnn2cccnc12 (stereo not drawn) [Example 439, N-(3-(5-chloro-2-(difluoromethoxy)phenyl)-1-(2-(octahydropyrrolo[3,4-b]pyridin-6-yl)-2-oxoethyl)-1H-pyrazol-4-yl)pyrazolo[1,5-a]pyrimidine-3-carboxamide] | 780 | 710 | 0.0353
CN1CCCC2CN(C(=O)Cn3cc(NC(=O)c4cnn5cccnc45)c(-c4cc(Cl)ccc4OC(F)F)n3)CC21 (stereo not drawn) [Example 440, N-(3-(5-chloro-2-(difluoromethoxy)phenyl)-1-(2-(1-methyl-octahydropyrrolo[3,4-b]pyridin-6-yl)-2-oxoethyl)-1H-pyrazol-4-yl)pyrazolo[1,5-a]pyrimidine-3-carboxamide] | 540 | 460 | 0.0068
O=C(Nc1cn(CC(=O)N2CCC(N3CCCOCC3)CC2)nc1-c1cc(Cl)ccc1OC(F)F)c1cnn2cccnc12 [Example 441, N-(1-(2-(4-(1,4-oxazepan-4-yl)piperidin-1-yl)-2-oxoethyl)-3-(5-chloro-2-(difluoromethoxy)phenyl)-1H-pyrazol-4-yl)pyrazolo[1,5-a]pyrimidine-3-carboxamide] | 1480 | 520 | 0.0084
O=C(Nc1cn(CC(=O)N2C[C@@H]3CCN[C@@H]3C2)nc1-c1cc(Cl)ccc1OC(F)F)c1cnn2cccnc12 [Example 444, N-(3-(5-chloro-2-(difluoromethoxy)phenyl)-1-(2-((3aS,6aS)-hexahydropyrrolo[3,4-b]pyrrol-5(1H)-yl)-2-oxoethyl)-1H-pyrazol-4-yl)pyrazolo[1,5-a]pyrimidine-3-carboxamide] | 890 | 760 | 0.054
O=C(Nc1cn(CC(=O)N2CCC(N3CCNCC3=O)CC2)nc1-c1cc(Cl)ccc1OC(F)F)c1cnn2cccnc12 [Example 445, N-(3-(5-chloro-2-(difluoromethoxy)phenyl)-1-(2-oxo-2-(4-(2-oxopiperazin-1-yl)piperidin-1-yl)ethyl)-1H-pyrazol-4-yl)pyrazolo[1,5-a]pyrimidine-3-carboxamide] | 870 | 350 | 0.3
N#CC1CN(C2CCN(C(=O)Cn3cc(NC(=O)c4cnn5cccnc45)c(-c4cc(Cl)ccc4OC(F)F)n3)CC2)C1 [Example 446, N-(3-(5-chloro-2-(difluoromethoxy)phenyl)-1-(2-(4-(3-cyanoazetidin-1-yl)piperidin-1-yl)-2-oxoethyl)-1H-pyrazol-4-yl)pyrazolo[1,5-a]pyrimidine-3-carboxamide] | 1300 | 450 | 0.0121
O=C(Nc1cn(CC(=O)N2CCC(N3C[C@@H]4C[C@H]3CO4)CC2)nc1-c1cc(Cl)ccc1OC(F)F)c1cnn2cccnc12 [Example 447, N-(1-(2-(4-((1S,4S)-5-oxa-2-aza-bicyclo[2.2.1]heptan-2-yl)piperidin-1-yl)-2-oxoethyl)-3-(5-chloro-2-(difluoromethoxy)phenyl)-1H-pyrazol-4-yl)pyrazolo[1,5-a]pyrimidine-3-carboxamide] | 1250 | 490 | 0.0161
O=C(Nc1cn(CC(=O)N2CCC(N3CC4CC(C3)O4)CC2)nc1-c1cc(Cl)ccc1OC(F)F)c1cnn2cccnc12 [Example 450, N-(1-(2-(4-(6-oxa-3-aza-bicyclo[3.1.1]heptan-3-yl)piperidin-1-yl)-2-oxoethyl)-3-(5-chloro-2-(difluoromethoxy)phenyl)-1H-pyrazol-4-yl)pyrazolo[1,5-a]pyrimidine-3-carboxamide] | 970 | 370 | 0.0126

Second part, led by results:

Ki [2] [pM] | Ki [3] [pM] | SMILES | EC50 [1] [µM]
880 | 360 | CN1CCN(C2CCN(C(=O)Cn3cc(NC(=O)c4cnn5cccnc45)c(-c4cc(Cl)ccc4OC(F)F)n3)CC2)C(=O)C1 [Example 448, N-(3-(5-chloro-2-(difluoromethoxy)phenyl)-1-(2-(4-(4-methyl-2-oxopiperazin-1-yl)piperidin-1-yl)-2-oxoethyl)-1H-pyrazol-4-yl)pyrazolo[1,5-a]pyrimidine-3-carboxamide] | 0.0425
1100 | 380 | C[C@@H]1COCCN1C1CCN(C(=O)Cn2cc(NC(=O)c3cnn4cccnc34)c(-c3cc(Cl)ccc3OC(F)F)n2)CC1 [Example 449, N-(3-(5-chloro-2-(difluoromethoxy)phenyl)-1-(2-(4-((R)-3-methyl-morpholino)piperidin-1-yl)-2-oxoethyl)-1H-pyrazol-4-yl)pyrazolo[1,5-a]pyrimidine-3-carboxamide] | 0.0136
1560 | 450 | C[C@H]1COCCN1C1CCN(C(=O)Cn2cc(NC(=O)c3cnn4cccnc34)c(-c3cc(Cl)ccc3OC(F)F)n2)CC1 [Example 451, N-(3-(5-chloro-2-(difluoromethoxy)phenyl)-1-(2-(4-((S)-3-methyl-morpholino)piperidin-1-yl)-2-oxoethyl)-1H-pyrazol-4-yl)pyrazolo[1,5-a]pyrimidine-3-carboxamide] | 0.0201
650 | 710 | O=C(Nc1cn(Cc2cn(C3CCNCC3)nn2)nc1-c1cc(Cl)ccc1OC(F)F)c1cnn2cccnc12 [Example 452, N-(3-(5-chloro-2-(difluoromethoxy)phenyl)-1-((1-(piperidin-4-yl)-1H-1,2,3-triazol-4-yl)methyl)-1H-pyrazol-4-yl)pyrazolo[1,5-a]pyrimidine-3-carboxamide] | 0.0809
1300 | 410 | O=C(Nc1cn(CC(=O)N2CCC(OCC(=O)N3CCOCC3)CC2)nc1-c1cc(Cl)ccc1OC(F)F)c1cnn2cccnc12 [Example 453, N-(3-(5-chloro-2-(difluoromethoxy)phenyl)-1-(2-(4-(2-morpholino-2-oxoethoxy)piperidin-1-yl)-2-oxoethyl)-1H-pyrazol-4-yl)pyrazolo[1,5-a]pyrimidine-3-carboxamide] | 0.0304
230 | 400 | CN1CCC(n2cc(Cn3cc(NC(=O)c4cnn5cccnc45)c(-c4cc(Cl)ccc4OC(F)F)n3)nn2)CC1 [Example 454, N-(3-(5-chloro-2-(difluoromethoxy)phenyl)-1-((1-(1-methylpiperidin-4-yl)-1H-1,2,3-triazol-4-yl)methyl)-1H-pyrazol-4-yl)pyrazolo[1,5-a]pyrimidine-3-carboxamide] | 0.0235
150 | 300 | O=C(Nc1cn(Cc2cn(C3CCN(C4CCOC4)CC3)nn2)nc1-c1cc(Cl)ccc1OC(F)F)c1cnn2cccnc12 (stereo not drawn) [Example 455, N-(3-(5-chloro-2-(difluoromethoxy)phenyl)-1-((1-(1-(tetrahydrofuran-3-yl)piperidin-4-yl)-1H-1,2,3-triazol-4-yl)methyl)-1H-pyrazol-4-yl)pyrazolo[1,5-a]pyrimidine-3-carboxamide] | 0.021
